Measurements published in US11667879B2, “Dynamic incubator system and method” (FOREVER LABS, INC., priority 2019, dated 2023).

Tested on: rat 9 L gliosarcoma cells
Test: cell proliferation experiment, 9 L gliosarcoma cells
Format: cell-based
Settings: 10 uM Fisetin for 24 hours, then 48 hours without; 72 hours, dynamic incubation vs constant
Experimental: Referring now to FIG. 11, another graph illustrating the results of another cell proliferation experiment is depicted. In this experiment, rat 9 L gliosarcoma cells after 72 hours of culture in controlled temperature and gas concentration (constant 37° C. and 5% CO2) are compared with dynamic incubation using the dynamic incubator system 10 (cycling 37° C. and 5% CO2 for 8 hrs., then 38° C. and 5.5% CO2 for 30 min.). The experiment included 10 uM Fisetin. In addition, 100,000 9 L cells were plated in a T75 flask, containing 10 mL of α-MEM medium, with 10 uM Fisetin. In addition, the medium was refreshed after 24 hours without Fisetin, and the cells were then cultured for a 48 additional hours. […] P-values are from t-test compared to control.

O=c1c(O)c(-c2ccc(O)c(O)c2)oc2cc(O)ccc12 [Fisetin]
9 L cell numbers: decreases cell numbers
